Structures can show the parent of a compound that is named as a salt.
Test system: Influenza, Ann Arbor virus
Assay: Influenza Ann Arbor in mice, oral; schedule by table; late read day 5 (Tables 15, 25, 29, 30), 6 (18, 20, 22, 23, 26, 27, 28, 54), 7 (14, 19, 21, 24, 53, 56), 8 (16, 17, 51), 9 (11, 55)
Type: in vivo, mouse
Settings: for Toxic: oral, mouse

Compound | No. animals surviving after 5-7 days (total dose 30 pg) | Survivors (total dose 30 pg) | No. animals surviving after 5-7 days (total dose 300 pg) | Survivors (total dose 300 pg) | No. animals surviving after 5-7 days (total dose 3 ng) | Survivors (total dose 3 ng) | No. animals surviving after 5-7 days (total dose 30 ng) | Survivors (total dose 30 ng) | No. animals surviving after 5-7 days (total dose 300 ng) | Survivors (total dose 300 ng) | No. animals surviving after 5-7 days (total dose 3 μg) | Survivors (total dose 3 μg) | No. animals surviving after 5-7 days (total dose 30 μg) | Survivors (total dose 30 μg) | No. animals surviving after 5-7 days (total dose 300 μg) | Survivors (total dose 300 μg) | No. animals surviving after 5-7 days (total dose 3 mg) | Survivors (total dose 3 mg) | other results
CCCC(C)=NNC(N)=S [2-pentanone, thiosemicarbazone] | 2 | 0 | 2 | 0 | 2 | 0 | 2 | 0 | 1 | 0 | 1 | 0 | 1 | 1 | 0 | 0 |  |  | No. animals surviving after 7 days (total dose 15 ng): 3; Survivors (total dose 15 ng): 0; No. animals surviving after 7 days (total dose 22.5 ng): 0; Survivors (total dose 22.5 ng): 0; No. animals surviving after 7 days (total dose 75 ng): 1; Survivors (total dose 75 ng): 0; No. animals surviving after 7 days (total dose 150 ng): 0; Survivors (total dose 150 ng): 0; No. animals surviving after 7 days (total dose 225 ng): 3; Survivors (total dose 225 ng): 0; No. animals surviving after 7 days (total dose 750 ng): 2; Survivors (total dose 750 ng): 0; No. animals surviving after 7 days (total dose 1.5 μg): 2; Survivors (total dose 1.5 μg): 0; No. animals surviving after 7 days (total dose 2.25 μg): 1; Survivors (total dose 2.25 μg): 1
CNNC [1,2-dimethylhydrazine, dihydrochloride] | 6 | 1 | 2 | 0 | 3 | 0 | 3 | 1 | 5 | 0 | 3 | 0 | 4 | 0 | 6 | 0 | 3 | 0 | 
NC(N)=NN=Cc1c(Cl)cccc1Cl [[(2,6-dichlorobenzylidine)amino]guanidine acetate] | 4 | 0 | 2 | 1 | 4 | 0 | 1 | 0 | 1 | 0 | 2 | 0 | 3 | 0 | 1 | 0 |  |  | Toxic (total dose 3 mg): Toxic
C=CCNC(=S)NN=C1Cc2ccccc2C1 [2-Indanone, 4-allylthiosemicarbazone] | 4 | 0 | 7 | 0 | 4 | 0 | 6 | 0 | 6 | 0 | 2 | 0 | 6 | 0 | 2 | 0 | 4 | 1 | 
NC(=S)NN=C1Cc2ccccc2C1 [2-indanone, thiosemicarbazone] | 8 | 1 | 8 | 0 | 5 | 0 | 9 | 0 | 8 | 1 | 8 | 1 | 8 | 0 | 6 | 0 |  |  | Toxic (total dose 3 mg): Toxic
CCOC(=O)CC(C)=NNC(N)=S [acetoacetic acid, ethyl ester, thiosemicarbazone] | 8 | 0 | 4 | 0 | 5 | 0 | 5 | 0 | 4 | 0 | 6 | 0 | 8 | 0 | 7 | 0 | 5 | 0 | 
CCC(C)=NNC(=N)N.O=[N+]([O-])O [1-(sec-butylideneamino)guanidine nitrate, 1-(sec-butylideneamino)guanidine, nitrate] |  |  |  |  | 0 | 0 | 1 | 0 | 3 | 2 | 0 | 0 | 2 | 2 | 0 | 0 |  |  | 
CC(C)=NNC(N)=S [acetone, thiosemicarbazone] | 3 | 1 | 2 | 0 | 2 | 0 | 2 | 0 | 3 | 0 | 5 | 0 | 2 | 0 | 3 | 0 |  |  | 
CCC(CC)=NNC(N)=S [3-pentanone, thiosemicarbazone] | 2 | 0 | 1 | 0 | 3 | 0 | 0 | 0 | 3 | 0 | 6 | 1 | 7 | 0 | 4 | 0 |  |  | No. animals surviving after 7 days (total dose 12 μg): 1; Survivors (total dose 12 μg): 0; No. animals surviving after 7 days (total dose 18 μg): 1; Survivors (total dose 18 μg): 1; No. animals surviving after 7 days (total dose 24 μg): 0; Survivors (total dose 24 μg): 0; No. animals surviving after 7 days (total dose 60 μg): 1; Survivors (total dose 60 μg): 0; No. animals surviving after 7 days (total dose 90 μg): 3; Survivors (total dose 90 μg): 0; No. animals surviving after 7 days (total dose 120 μg): 1; Survivors (total dose 120 μg): 1; No. animals surviving after 7 days (total dose 150 μg): 2; Survivors (total dose 150 μg): 1
CNN [Methylhydrazine, methylhydrazine] | 2 | 1 | 3 | 0 | 3 | 1 | 4 | 1 | 1 | 0 | 3 | 0 | 3 | 1 | 1 | 0 |  |  | Toxic (total dose 3 mg): Toxic
CN(C)N [1,1-dimethylhydrazine] | 5 | 0 | 3 | 0 | 3 | 1 | 2 | 0 | 3 | 0 | 2 | 0 | 1 | 1 | 3 | 0 | 2 | 0 | 
NC(N)=S [Thiourea] | 2 | 0 | 4 | 0 | 3 | 1 | 4 | 0 | 2 | 0 | 7 | 0 | 3 | 0 | 6 | 1 | 5 | 0 | 
Cc1ccccc1NC(=S)NN=C1CCCC1 [cyclopentanone, 3-thio-4-o-tolyl-semicarbazone] | 6 | 0 | 9 | 0 | 9 | 0 | 9 |  | 6 | 0 | 6 | 0 |  | 0 | 9 | 0 | 8 | 0 | 

From patent US4027039A (priority 1975, dated 1977)
